The text below walks through data of publication PMC9504018, “The hEag1 K^+ Channel Inhibitor Astemizole Stimulates Ca^2+ Deposition in SaOS-2 and MG-63 Osteosarcoma Cultures” (International Journal of Molecular Sciences, 2022).

Each structure is given as a SMILES string.

For the experiment, the target named is T1, hEag1 (Kv10.1) (Homo sapiens, UniProt O95259).
T1 construct: gene KCNH1
T1 sequence (O95259 1-989): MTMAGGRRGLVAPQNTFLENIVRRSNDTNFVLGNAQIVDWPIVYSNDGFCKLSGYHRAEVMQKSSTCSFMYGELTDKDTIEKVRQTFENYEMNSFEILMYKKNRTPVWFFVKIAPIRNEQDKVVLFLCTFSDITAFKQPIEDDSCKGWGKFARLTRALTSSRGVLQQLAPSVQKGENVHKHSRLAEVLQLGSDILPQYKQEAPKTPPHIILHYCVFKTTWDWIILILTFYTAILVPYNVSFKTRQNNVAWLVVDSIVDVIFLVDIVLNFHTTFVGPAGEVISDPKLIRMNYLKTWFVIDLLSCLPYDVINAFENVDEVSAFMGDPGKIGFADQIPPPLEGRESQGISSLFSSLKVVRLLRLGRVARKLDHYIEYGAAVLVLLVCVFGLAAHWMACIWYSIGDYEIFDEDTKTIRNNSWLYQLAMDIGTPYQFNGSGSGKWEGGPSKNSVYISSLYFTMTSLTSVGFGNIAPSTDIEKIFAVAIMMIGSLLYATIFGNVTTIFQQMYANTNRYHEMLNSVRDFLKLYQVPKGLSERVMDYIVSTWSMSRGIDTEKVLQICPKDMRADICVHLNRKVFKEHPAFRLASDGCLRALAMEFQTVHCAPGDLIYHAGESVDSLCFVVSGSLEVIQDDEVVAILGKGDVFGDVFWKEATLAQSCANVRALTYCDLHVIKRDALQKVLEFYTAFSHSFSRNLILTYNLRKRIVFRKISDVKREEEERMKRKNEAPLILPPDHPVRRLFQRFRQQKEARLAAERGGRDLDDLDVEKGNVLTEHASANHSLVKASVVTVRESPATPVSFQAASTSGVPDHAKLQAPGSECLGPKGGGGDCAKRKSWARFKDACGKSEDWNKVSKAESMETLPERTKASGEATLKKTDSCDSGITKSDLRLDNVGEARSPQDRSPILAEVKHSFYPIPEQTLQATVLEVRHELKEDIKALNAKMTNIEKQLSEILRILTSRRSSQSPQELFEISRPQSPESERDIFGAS
Kind of experiment: whole-cell patch clamp of the endogenous current in SaOS-2 cells, six-dose concentration-response. The experiment is classed as cell-based. Background: In patch-clamp work, channel activity is measured electrically.

In general, IC50 refers to the concentration at which inhibition is half-maximal. The low end stands for inhibition by little substance, the high end for a need for much substance.

In the case of `COc1ccc(CCN2CCC(Nc3nc4ccccc4n3Cc3ccc(F)cc3)CC2)cc1` [astemizole], the IC50 is approximately 135 nM.
